Measurements: publication PMC7463537, “Synthesis and Evaluation of Antimicrobial and Cytotoxic Activity of Oxathiine-Fused Quinone-Thioglucoside Conjugates of Substituted 1,4-Naphthoquinones” (Molecules, 2020)
Values after ≈ are worked out from the molar mass of the structure shown.

Experiments:
S. aureus ATCC 21027 [1] = assay: Agar diffusion method, S. aureus; format: cell-based, Staphylococcus aureus; set-up: key to Diameter of Zone Inhibition, S. aureus: Zones within 20–40 mm mean strong antibiotic activity; zones up to 20 mm—moderate; ≤10 mm—weak; +—insignificant; conditions: for zone of inhibition at 100 µg/disc / zone of inhibition at 1 µg/disc: Staphylococcus aureus, read-out: Diameter of Zone Inhibition, S. aureus; for zone of inhibition at 100 µg/disc: ATCC21027, 24 h, 100 µg/well, 24 h, incl. 7 mm well; for zone of inhibition at 1 µg/disc: ATCC21027, 1 µg/well
Experimental: (§1) Elyakov Pacific Institute of Bioorganic Chemistry, Far East Branch, Russian Academy of Sciences. Test substances were dissolved in DMSO at concentrations of 1.0, 0.1, and 0.01 mg/mL. All strains were grown on trypticase-soy agar TSA (BBL) at 37 °C. […] After incubation of the dishes at 37 °C for 24 h (for bacteria) and 48 h (for the fungus) at 28 °C, the diameters of the growth inhibition zones of pathogenic microorganisms (mm) were measured, including the diameter of the wells. Commercial antibacterial drugs (vancomicin and gentamicin) and antifungal (clotrimazol) drugs were used as positive controls.

[2] = tested on: mouse neuroblastoma (Neuro 2a); assay: Cytotoxicity, MTT assay, Neuro 2a cells; conditions: for EC50: N2a, 24 h, read-out: Cytotoxicity (EC50), Neuro 2a; for Selectivity Index (SI), Neuro-2a: SI = EC50 (Jb6 Cl 41-5a normal cells)/EC50 (tumor cells)
[3] = tested on: mouse ascites Ehrlich carcinoma; assay: Cytotoxicity, nonspecific esterase (FDA) assay, ascites Ehrlich carcinoma cells; conditions: for EC50: Mus musculus, Ehrlich, 24 h, read-out: Cytotoxicity (EC50), Ascites Ehrlich Carcinoma; for Selectivity Index (SI), Ascitic Ehrlich Carcinoma: SI = EC50 (Jb6 Cl 41-5a normal cells)/EC50 (tumor cells)
E. coli K-12 = assay: Agar diffusion method, E. coli; format: cell-based, Escherichia coli; conditions: Escherichia coli, K12; 100 µg/well; read-out: Diameter of Zone Inhibition, E. coli
Experimental: as §1

B. cereus ATCC 10702 = assay: Agar diffusion method, B. cereus; format: cell-based, Bacillus cereus; set-up: key to Diameter of Zone Inhibition, B. cereus: Zones within 20–40 mm mean strong antibiotic activity; zones up to 20 mm—moderate; ≤10 mm—weak; +—insignificant; conditions: for Diameter of Zone Inhibition, B. cereus: 1 µg/well; for zone of inhibition at 100 µg/disc / zone of inhibition at 1 µg/disc: Bacillus cereus, read-out: Diameter of Zone Inhibition, B. cereus; for zone of inhibition at 100 µg/disc: ATCC10702, 24 h, 100 µg/well, 24 h, incl. 7 mm well; for zone of inhibition at 1 µg/disc: ATCC10702, 1 µg/well
Experimental: as §1

C. albicans KMM 453 = assay: Agar diffusion method, C. albicans; format: cell-based; conditions: Candida albicans, KMM453, 48 h, 100 µg/well, 48 h at 28 °C; read-out: Diameter of Zone Inhibition, C. albicans
Experimental: as §1

[4] = tested on: human cervical cancer (HeLa); assay: Cytotoxicity, MTT assay, HeLa cells; conditions: for EC50: Homo sapiens, HeLa, 24 h, read-out: Cytotoxicity (EC50), HeLa; for Selectivity Index (SI), HeLa: SI = EC50 (Jb6 Cl 41-5a normal cells)/EC50 (tumor cells)
S. aureus ATCC 21027 [5] = assay: Minimum inhibitory concentration, broth microdilution; format: cell-based, Staphylococcus aureus; conditions: for Selectivity index (SI) against S. aureus: SI = EC50 (normal Jb6 Cl 41-5a cells)/MIC; for MIC: Staphylococcus aureus, ATCC21027, broth microdilution, 24 h, read-out: Minimum inhibitory concentration (MIC) against S. aureus
Experimental: Stocks of substances were prepared in DMSO at a concentration of 10 mM. All studied compounds were tested in concentrations from 1.5 μM to 100 μM using twofold dilution. All tested compounds were add to the wells of the plates in a volume of 20 μL diluted in PBS (DMSO concentration < 1%). The bacterial culture of S. aureus ATCC 21027 (Collection of Marine Microorganisms PIBOC FEB RAS) was cultured in a Petri dish at 37 °C for 24 h on solid medium with the following composition; pepton—5.0 g/L, K2HPO4—0.2 g/L, glucose—1.0 g/L, MgSO4—0.05 g/L, yeast extract—1 g/L, agar—16.0 g/L, and distilled water—1.0 L. The pH of the medium was adjusted to 7.2–7.4 with NaOH solution.
The antimicrobial activity of the compounds was determined by the minimum inhibitory concentration (MIC) according to the method adopted by the Clinical and Laboratory Standards Institute (CLSI). Methods for dilution antimicrobial susceptibility tests for bacteria that grow aerobically followed the approved standard—tenth edition. CLSI document M07-A10, PA: Clinical and Laboratory Standards Institute; 2015, with a slight modification of the medium. The assays were performed in 96-well microplates in appropriate broth (pepton—5.0 g/L, K2HPO4—0.2 g/L, glucose—1.0 g/L, MgSO4—0.05 g/L, yeast extract—1 g/L, casein hydrolyzate—2.5 g/L, distilled water—1L). […] The MIC value is defined as the lowest concentration of compounds resulting in the complete inhibition of bacterial growth by measuring the absorbance at 600 nm with a microplate reader (BioTek, Winooski, Vt, USA). All experiments were performed twice in triplicate. Gentamicin was used as a positive control in concentration 1 mg/mL; 1% DMSO solution in PBS as a negative. The selectivity index for S. aureus has been defined as the ratio of EC50 for normal cells and the MIC value for the bacterial culture (SI = EC50/MIC).

[6] = tested on: Gram-positive bacteria (S. aureus, B. cereus); assay: Agar diffusion method, Gram-positive strains; format: cell-based, Staphylococcus aureus, Bacillus cereus; conditions: for Antimicrobial activity / inhibition zone diameter, Gram-positive bacteria: 10 µg/well; for Antimicrobial activity, Gram-positive strains: dilution to 1 µg/well
Experimental: as §1

[7] = Cytotoxicity, MTT assay, Jb6 Cl 41-5a normal epithelial cells; conditions: mouse, Jb6 Cl 41-5a normal epithelial cells
P. aeruginosa ATCC 27853 = assay: Agar diffusion method, P. aeruginosa; format: cell-based, Pseudomonas aeruginosa; conditions: Pseudomonas aeruginosa, ATCC27853, 100 µg/well; read-out: Diameter of Zone Inhibition, P. aeruginosa
Experimental: as §1

SMILES | zone of inhibition at 100 µg/disc (S. aureus ATCC 21027 [1]) [mm] | EC50 [2] [µM] | Selectivity Index (SI), Neuro-2a [2] | EC50 [3] [µM] | Selectivity Index (SI), Ascitic Ehrlich Carcinoma [3] | zone of inhibition at 100 µg/disc (E. coli K-12) [mm] | Diameter of Zone Inhibition, B. cereus (B. cereus ATCC 10702) | zone of inhibition at 100 µg/disc (B. cereus ATCC 10702) [mm] | zone of inhibition at 100 µg/disc (C. albicans KMM 453) [mm] | EC50 [4] [µM] | Selectivity Index (SI), HeLa [4] | Selectivity index (SI) against S. aureus (S. aureus ATCC 21027 [5]) | MIC (S. aureus ATCC 21027 [5]) [µM] | Antimicrobial activity / inhibition zone diameter, Gram-positive bacteria [6] | Antimicrobial activity, Gram-positive strains [6] | EC50 at 24 h [7] [µM] | zone of inhibition at 100 µg/disc (P. aeruginosa ATCC 27853) [mm] | melting point [°C] | zone of inhibition at 1 µg/disc (S. aureus ATCC 21027 [1]) [mm] | zone of inhibition at 1 µg/disc (B. cereus ATCC 10702) [mm] | other results
O=C1C2=C(O[C@@H]3[C@@H](O)[C@H](O)CO[C@H]3S2)C(=O)c2c(O)cccc21 [Compound 20c, (3R,4S,4aR,12aS)-3,4,7-Trihydroxy-3,4,4a,12a-tetrahydro-2H-naphtho[2,3-b]pyrano[2,3-e][2,5]oxathiine-6,11-dione] | 30 ± 2 | 2.2 | 0.1 | 0.7 | 0.4 | 0 | + | 25 ± 1 | 8 ± 1 | 2.3 | 0.1 | 0.02 | 12.5 (≈ 4.2 µg/mL) | comparable with antibiotics vancomicin and gentamicin | residual effect | 0.3 | 0 |  |  |  | Diameter of Zone Inhibition, S. aureus (S. aureus ATCC 21027 [1]; 1 µg/well): +
O=C1C2=C(O[C@@H]3[C@@H](O)[C@H](O)[C@@H](CO)O[C@H]3S2)C(=O)c2c(O)cccc21 [Compound 20a, (2R,3S,4S,4aR,12aS)-3,4,7-Trihydroxy-2-(hydroxymethyl)-3,4,4a,12a-tetrahydro-2H-naphtho[2,3-b]pyrano-[2,3-e][2,5]oxathiine-6,11-dione] | 30 ± 2 | 0.7 | 1 | 2.7 | 0.3 | 0 |  | 22 ± 1 | 0 | 6.3 | 0.1 |  | 25 (≈ 9.16 µg/mL) |  |  | 0.7 | 0 | 274 to 276 | 0 | 0 | 
O=C1C2=C(O[C@@H]3[C@@H](O)[C@@H](O)CO[C@H]3S2)C(=O)c2c(O)cccc21 [Compound 20d, (3S,4S,4aR,12aS)-3,4,7-Trihydroxy-3,4,4a,12a-tetrahydro-2H-naphtho[2,3-b]pyrano[2,3-e][2,5]oxathiine-6,11-dione] | 40 ± 2 | 1.4 | 0.5 | 1.2 | 0.6 | 0 | + | 30 ± 3 | 0 | 0.4 | 1.75 | 0.1 | 6.25 (≈ 2.1 µg/mL) | comparable with antibiotics vancomicin and gentamicin | residual effect | 0.7 | 0 |  | 0 |  | 
COc1ccc(OC)c2c1C(=O)C1=C(S[C@@H]3OC[C@@H](O)[C@H](O)[C@H]3O1)C2=O [Compound 17c, (3R,4S,4aR,12aS)-3,4-Dihydroxy-7,10-dimethoxy-3,4,4a,12a-tetrahydro-2H-naphtho[2,3-b]pyrano[2,3-e][2,5]oxathiine-6,11-dione] | 0 | > 25 |  | > 25 |  | 0 |  | 0 | 0 | > 25 |  |  |  |  |  | > 25 | 0 | 329 to 332 |  |  | 
O=C1C2=C(O[C@@H]3[C@@H](O)[C@@H](O)[C@@H](CO)O[C@H]3S2)C(=O)c2c(O)cccc21 [Compound 20b, (2R,3R,4S,4aR,12aS)-3,4,7-Trihydroxy-2-hydroxymethyl-3,4,4a,12a-tetrahydro-2H-naphtho[2,3-b]pyrano[2,3-e][2,5]oxathiine-6,11-dione] | 30 ± 2 | 1.2 | 0.4 | 1.1 | 0.5 | 0 |  | 20 ± 1 | 0 | 4.7 | 0.1 |  | 25 (≈ 9.16 µg/mL) |  |  | 0.5 | 0 | 293 to 295 | 0 | 0 | 
COc1ccc(OC)c2c1C(=O)C1=C(S[C@@H]3O[C@H](CO)[C@@H](O)[C@H](O)[C@H]3O1)C2=O [Compound 17a, (2R,3S,4S,4aR,12aS)-3,4-Dihydroxy-2-hydroxymethyl-7,10-dimethoxy-3,4,4a,12a-tetrahydro-2H-naphtho[2,3-b]pyrano[2,3-e][2,5]oxathiine-6,11-dione] | 0 | > 25 |  | > 25 |  | 0 |  | 0 | 0 | > 25 |  |  |  |  |  | > 25 | 0 | 332 to 335 |  |  | 
